Measured values: patent US7625879B2 (priority 1998, dated 2009)
Structures can show the parent of a compound that is named as a salt.

Assays:
Tγ9δ2 lymphocytes [1] = test: Stimulation of the proliferation of Tγ9δ2 lymphocytes in a culture; type: cell-based, human; conditions: effective dose at 50% of the maximum polyclonal lymphocyte amplification effect; 8 days culture with hIL-2; read-out: ED 50% (the source's name)
Method: 20 microliters of the aqueous solution of the compound according to the invention adjusted to the final concentration specified in the test are added to an in vitro culture of 10^6 total T lymphocytes in 1 ml, separated from the blood of a healthy adult human donor and initially containing 1-5% of Tγ9δ2 lymphocytes, in an adequate culture medium (RPMI 1640+10% of inactivated human serum and 50 U/ml of human interleukin-2 (hIL-2)). After culturing for 4 days, 50 U of dIL-2 are added per milliliter of culture medium. After 8 days, the cells are counted, collected, washed with phosphate buffer, and the Tγ9δ2 type cells are detected in the culture by labeling with conventional commercial reagents (fluorescein-labeled monoclonal antibodies) and the proportion thereof determined by flux cytometry analysis. The parameter measured is either the change in the proportion of or the increase in the number of Tγ9δ2 cells in cultures in the presence of the compound according to the invention in comparison with cultures not containing a compound according to the invention.

Tγ9δ2 lymphocytes [2] = test: In vivo bioactivity in the macaque: Tγ9δ2 lymphocytes in the blood; parameters: species or system Macaca fascicularis; conditions: for % of Tγ9δ2 lymphocytes in the blood in vivo (7 days after injection): animals injected BrHPP only
Method: (§1) These tests are performed on monkeys of the species Macaca fascicularis (males weight 3-4 kg) anaesthetized with 15 mg/kg Zoletil (zolazepam)®/0.01 mg/kg atropine. The batches of BrHPP (in NA^+ form) are subjected to prior purity testing (>99%), quantified and have been tested in accordance with the pyrogenicity tests of Example 12. The animals are injected by rapid intravenous injection (2-5 minutes into the saphenous vein) with 0.1 mg/kg of BrHPP (i.e. 0.3-0.4 mg per animal) diluted in 10 ml of Ringer lactate. Each animal also receives a subcutaneous injection of 90,000 units of interleukin-2 (IL-2). These injections are performed once daily for four days. Control animals receive only the subcutaneous injection of IL-2 once daily for four days.
(§2) The proportion of Tγ9δ2 lymphocytes in total lymphocytes in the various animals is compared in the following three situations: • in the animal's bloodstream, • in a culture of total lymphocytes taken from the animal receiving only BrHPP, • in a culture of total lymphocytes talken from the animal receiving BrHPP+IL-2.

Tγ9δ2 lymphocytes [3] = test: Reactivity ex vivo of Tγ9δ2 lymphocytes from injected macaques in culture; type: cell-based, Macaca fascicularis
Method: as §1, §2

[4] = Pyrogenicity in rabbits (ISO-10993-11, USP XXIII); type: in vivo
Method: This test is performed in accordance with a protocol specified by standards ISO-10993-11 (1993) and USP XXIII. […] Temperature is taken every 30 minutes for 3 hours starting 30 minutes after the injection.

[5] = Toxicity of BrHPP (sodium salt) in mice, intravenous injection; type: in vivo
Method: Eight 30 g mice received an intravenous injection (caudal vein) of 300 μl of PBS buffer containing 1 mg of BrHPP (sodium salt). […] Toxicity is thus less than 12.5% for a dose of 33.4 mg of BrHPP (Na^+) per kilogram of animal body weight.

Tγ9δ2 lymphocyte clone = test: Stimulation of induced cytotoxicity of a Tγ9δ2 lymphocyte clone
human Tγ9δ2 lymphocytes = conditions: cited from earlier work
[6] = animals injected BrHPP only, twice (1 injection + 1 booster)

## 3-(bromomethyl)-3-butanol-1-yl diphosphate [BrHPP]
Tγ9δ2 lymphocytes [1]
  EC50: 10 nM
Tγ9δ2 lymphocytes [2]; i.v. 0.1 mg/kg, Na+ form
  % of Tγ9δ2 lymphocytes in the blood in vivo (7 days after injection): ~1%
Tγ9δ2 lymphocytes [2]; twice (1 injection + 1 booster)
  % of Tγ9δ2 lymphocytes in the blood in vivo (7 days after injection): ~1%
Tγ9δ2 lymphocytes [2]; intravenous injection of BrHPP in the presence of subcutaneous IL-2
  effect on the monkey's Tγ9δ2 lymphocytes in vivo: preactivates these same cells and brings about the growth thereof in vivo
Tγ9δ2 lymphocytes [2]; single or repeated intravenous injection of BrHPP alone
  effect on the monkey's Tγ9δ2 lymphocytes in vivo: preactivates the monkey's Tγ9δ2 lymphocytes, but does not stimulate the growth thereof in the animal
Tγ9δ2 lymphocytes [3]; animals injected BrHPP + IL-2
  Reactivity ex vivo of Tγ9δ2 lymphocytes (% after 10 days' culturing in vitro), Amplification by 40 nM BrHPP: 10%
  Reactivity ex vivo of Tγ9δ2 lymphocytes (% after 10 days' culturing in vitro), Amplification by 40 nM BrHPP + IL-2: 50.0%
Tγ9δ2 lymphocytes [3]; animals injected BrHPP only
  Reactivity ex vivo of Tγ9δ2 lymphocytes (% after 10 days' culturing in vitro), Amplification by 40 nM BrHPP: 1%
Tγ9δ2 lymphocytes [3]; [6]
  Reactivity ex vivo of Tγ9δ2 lymphocytes (% after 10 days' culturing in vitro), Amplification by 40 nM BrHPP: 1%
  Reactivity ex vivo of Tγ9δ2 lymphocytes (% after 10 days' culturing in vitro), Amplification by 40 nM BrHPP + IL-2: 40.2%

## 3-(chloromethyl)-3-butanol-1-yl diphosphate [CIHPP]
Tγ9δ2 lymphocytes [1]
  EC50: 100 nM

## 3-(iodomethyl)-3-butanol-1-yl diphosphate [IHPP]
Tγ9δ2 lymphocytes [1]
  EC50: 3 nM

## CC(O)(CBr)CCOP(=O)(O)OP(=O)(O)O (stereo not shown) [BrHPP (sodium salt), 3-(bromomethyl)-3-butanol-1-yl diphosphate]
[4]; 400 μg/ml solution, i.v.
  side-effect on injection: muscle tremors
[4]; solution diluted 1:40 to 10 μg/ml, one rabbit, in 19 minutes
  reaction to the injection: no reaction to the injection
[4]; three rabbits, i.v. 400 μg/ml, 10 ml per kilogram, 3 hours
  febrile reaction (increase in temperature greater than 0.5° C.): Only one rabbit exhibited an increase in temperature of greater than 0.5 °C
[5]; dose of 33.4 mg per kilogram of animal body weight, i.v.
  Toxicity: less than 12.5%
[5]; eight 30 g mice, i.v. caudal vein, 1 mg in 300 μl PBS
  signs of shock or pyrogenicity: No sign of shock or pyrogenicity
[5]; i.v. 1 mg per 30 g mouse, during the study
  variation in the weight of the mice: no significant variation
[5]; of eight mice, i.v. 1 mg per 30 g mouse
  mice still alive after 30 days: 8 mice

## CC(O)(CBr)CCOP(=O)(O)OP(=O)(O)OP(=O)(O)O (stereo not shown) [BrHPPP, 3-(bromomethyl)-3-butanol-1-yl triphosphate]
Tγ9δ2 lymphocytes [1]
  EC50: 120 nM

## CC(O)(CI)CCOP(=O)(O)OP(=O)(O)OP(=O)(O)O (stereo not shown) [IHPPP, 3-(iodomethyl)-3-butanol-1-yl triphosphate]
Tγ9δ2 lymphocytes [1]
  EC50: 70 nM

## CC(O)(CBr)CCOP(=O)(O)OP(=O)(O)OP(=O)(O)OCCC(C)(O)CBr (stereo not drawn) [di-BrHTP, α,γ di-[3-(bromomethyl)-3-butanol-1-yl] triphosphate]
Tγ9δ2 lymphocytes [1]
  EC50: 3000 nM

## isopentenyl pyrophosphate [IPP]
Tγ9δ2 lymphocytes [1]
  EC50: 3000 nM
Tγ9δ2 lymphocyte clone; Tγ9δ2 lymphocyte clone, decreasing concentrations, FIG. 2
  concentration at which active in induced cytotoxicity test: ~3000 nM
Tγ9δ2 lymphocyte clone; induced cytotoxicity test
  active concentration relative to the compounds according to the invention: ~300 times higher
Human Tγ9δ2 lymphocytes; best results obtained, prior art compounds
  minimum active concentration (no activity demonstrated below): ≥ 3 µM
Human Tγ9δ2 lymphocytes
  minimum active concentration relative to natural phosphoantigens: ~1000 times higher

## α,γ di-[3-(iodomethyl)-3-butanol-1-yl] triphosphate [di-IHTP]
Tγ9δ2 lymphocytes [1]
  EC50: 7000 nM
